Experiment [1] relates to Mast cell. Briefly: Inhibition of compound 48/80-induced histamine release in rat peritoneal mast cells. The class given is functional, cell-based.
The subject of experiment [2] is Mus musculus. Briefly: Inhibition of IgE-induced PCA reaction in albino Swiss mouse at 3 mg/kg administered intradermally. The class given is functional. Also on record: Activity: scale not given: the % may be the effect or the level left. As to conditions: for inhibition in vivo at 3 mg/kg: Mus musculus, albino Swiss.
The test system of experiment [3] is Mast cell. Kind of experiment: Inhibition of A23187-induced histamine release in rat peritoneal mast cells. The experiment is classed as functional, cell-based.
In experiment [4] the test system is Mast cell. Briefly: Inhibition of concanavalin A-induced histamine release in rat peritoneal mast cells. The class given is functional, cell-based.
Experiment [5] relates to Mast cell. Kind of experiment: Inhibition of A23187-induced histamine release in porcine peritoneal mast cells at 20 uM. The class given is functional. The following applies: Sus scrofa.
Experiment [6] relates to Mast cell. Kind of experiment: Inhibition of anti-IgE-induced histamine release in porcine lung mast cells at 20 uM. The experiment is classed as functional. The following applies: Sus scrofa.
For experiment [7], the system named is Mus musculus. Kind of experiment: Inhibition of IgE-induced PCA reaction in intradermally dosed albino Swiss mouse. The experiment is classed as functional, organism-based.
Experiment [8] relates to Mast cell. Kind of experiment: Inhibition of vancomycin-induced histamine release in rat peritoneal mast cells. The experiment is classed as functional, cell-based.

As a reminder, the IC50 is the concentration that gives 50% inhibition. The inhibition in vivo is the relative decrease from the control value, in per cent. For orientation: inhibition means the relative decrease from the control value, in per cent. For `CN([C@@H]1CCc2ccccc2C1)[C@@H]1CC(=O)c2ccccc21`, the 50% inhibitory concentration (IC50) in the experiment with Mast cell [1] was 3.03 µM; in the experiment with Mast cell [3], 9.48 µM; in the experiment with Mast cell [4], 13.1 µM. For the same compound, the inhibition in vivo at 3 mg/kg in the experiment on Mus musculus [2] was determined as 77%. For the same compound, the inhibition at 20 µM was 22% in the experiment with Mast cell [5] and 89% in the experiment on Mast cell [6].
As for `CN([C@@H]1CCc2ccccc2C1)[C@H]1CC(=O)c2ccccc21`, the IC50 in the experiment on Mast cell [1] was found to be 1.51 µM; in the experiment with Mast cell [8] it was 4.47 µM; in the experiment with Mast cell [3] it was 4.08 µM; with Mast cell [4], 16.9 µM. Moreover, the inhibition result in the experiment with Mus musculus [7] is “Dose-dependent effect”. In the experiment on Mus musculus [2], the inhibition in vivo at 3 mg/kg was found to be 111%. The inhibition at 20 µM with Mast cell [5] was determined as 31%; in the experiment on Mast cell [6] it was 53%.
In the case of `CN(C1CCc2ccccc2C1)C1CC(=O)c2ccccc21` (centres undefined), the inhibition in vivo at 3 mg/kg in the experiment on Mus musculus [2] stood at 83%.
Turning to `CN([C@H]1CCc2ccccc2C1)[C@@H]1CC(=O)c2ccccc21`, the 50% inhibitory concentration (IC50) in the experiment with Mast cell [1] worked out at 2.18 µM; in the experiment with Mast cell [8], 12.6 µM; in the experiment on Mast cell [3], 6.97 µM; with Mast cell [4] it was 1.6 µM. In addition, the inhibition in vivo at 3 mg/kg with Mus musculus [2] is 68%. The inhibition at 20 µM was 48% with Mast cell [5] and 81% in the experiment on Mast cell [6].
Consider `O=C([O-])c1cc(=O)c2c(OCC(O)COc3cccc4oc(C(=O)[O-])cc(=O)c34)cccc2o1.[Na+].[Na+]` [CROMOLYN SODIUM], for which the Activity in the experiment on Mus musculus [2] came out at 73%.
Take `CN([C@H]1CCc2ccccc2C1)[C@H]1CC(=O)c2ccccc21`: the half-maximal inhibitory concentration (IC50) in the experiment with Mast cell [1] is 1.49 µM; with Mast cell [3], 8.06 µM; with Mast cell [4], 1.6 µM. Further, in the experiment with Mus musculus [2], the inhibition in vivo at 3 mg/kg worked out at 73%. The values for the inhibition at 20 µM with Mast cell [5] and in the experiment on Mast cell [6] were 40% and 86%, respectively.

These data come from ChEMBL document CHEMBL1667851, “Synthesis and pharmacological evaluation of the individual stereoisomers of 3-[methyl(1,2,3,4-tetrahydro-2-naphthalenyl)amino]-1-indanone, a potent mast cell stabilising agent” (Bioorg Med Chem Lett, 2011).
